The test system of the experiment is GBM6 cells. Put plainly: Nanoparticle internalization by flow cytometry, GBM6 cells. Format: cell-based, Human. The settings on record: for cell internalization of free dye: average bulk FL of FAM with flow cytometry, over time. (Flow cytometry measures light scatter and fluorescence of single cells or particles in a stream.)

Results on 2 compounds are retold here after paper doi:10.1101/2020.05.04.072892v1 (bioRxiv, 2020).

`COc1cccc2c1C(=O)c1c(O)c3c(c(O)c1C2=O)C[C@@](O)(C(=O)CO)C[C@@H]3O[C@H]1C[C@H](N)[C@H](O)[C@H](C)O1` [free DOX, doxorubicin]: the “time of maximum DOX fluorescence in cells” value (average bulk FL of DOX by FCT) is 24 h.
On to 5,6-carboxyfluorescein [FAM], for which the “cell internalization of free dye” value is given as “cannot enter cells”. Moreover, for the setting “listed as free FAM”, the “cell internalization of free dye” value is reported as “no cell”.
